{"source": "patent US20030136407A1", "about": "“Liquid composition to be vaporized for inhibiting increase in blood sugar level, vaporizer for the same and use of the same” (priority 1999, published 2003)", "origin": "cited, not measured here", "tested_on": "Ehrlich Ascites Tumour Cells", "conditions": "in vitro; Chem. Pharm. Bull. 41(12) 2129-2131 (1993)", "data": [{"smiles": "C[C@H]1[C@H](C)CC[C@]2(C(=O)O)CC[C@]3(C)C(=CC[C@@H]4[C@@]5(C)C[C@@H](O)[C@H](O)C(C)(C)[C@@H]5CC[C@]43C)[C@H]12", "note": "[corosolic acid]", "values": [{"measurement": "activation of the mobility of grape sugar", "result": "activates the mobility of grape sugar"}]}]}
